Where a name gives a salt, the structure may show the parent alone.
Columns and labels:
[1] = test system: isolated perfused rat pancreas (insulin secretion); experiment: Insulin-secretory activity in the isolated perfused rat pancreas; set-up: species or system rat (female Charles River); conditions: 16.7 mM glucose, index > 1 indicates suppression of insulin secretion
Protocol: DETERMINATION OF INSULIN-SECRETORY ACTIVITY IN THE ISOLATED PERFUSED RAT PANCREAS
Pancreases were obtained from young adult female Charles River rats weighing from 200-300 g. The animals were anesthesized with sodium pentobarbitol (45 mg/kg), injected intraperitoneally, and the pancreas with its intact vasculature was removed and connected to an extracorporeal perfusion apparatus.
The basic perfusion solution contained: 133 mM NaCl, 4.4 mM KCl, 2.5 mM MgSO4, 2.4 mM Ca gluconate, 1.5 mM KH2 PO4, 29.4 mM HaHCO3, 4% dextran and 0.2% bovine serum albumin and glucose as discussed below. The perfusion flow rate was kept constant at 4 ml/min. After a 15-20 minute equilibration period, the experimental protocol was begun. The pancreatic effluent was collected in either one or four-minute fractions.
The perfusion was run in the following sequence for each test compounds:
30 min 16.7 mM glucose--internal control
30 min 16.7 mM glucose and test compound
10 min 16.7 mM glucose--to check pancreas viability
The perfusion for the nontreated pancreas preparation was run as above, except that the test compound was omitted and replaced with perfusion solution.
Test compounds were dissolved in 90% ethanol or dimethylsulfoxide to a concentration of 25 mM and then diluted in the perfusion buffer to the desired concentration. The perfusion effluent was collected in one or four minute fractions--the samples were checked immediately, aliquoted for submission to radioimmunoassay and stored at -20° C. until the time of assay. The radioimmunoassay of insulin was carried out by a back-titration method using a pure rat insulin standard.
To assess the inhibitory activity of the test compounds, an inhibition index was calculated. The inhibition index is derived by comparing the insulin secretion response from treated versus nontreated pancreas preparations. For each preparation, a ratio of insulin secretion was calculated from the area under the insulin secretion curve of the first pulse of 16.7 mM glucose divided by the area under the curve of the second pulse of 16.7 mM glucose containing compound.

[2] = Glucose clearance: acute in vivo model; set-up: species or system Sprague-Dawley rats; conditions: Rattus norvegicus, po, 0.5 h; 100 mg/kg intragastric, 30 min before i.p. glucose 1 g/kg; circulating glucose at 30 min; >100% indicates activity
Protocol: GLUCOSE CLEARANCE: ACUTE IN VIVO MODEL
The rationale for this test is that compounds which suppress insulin secretion should increase circulating glucose levels above those observed in controls following the administration of a high glucose load. Sprague-Dawley rats which range in weight from 150 to 180 grams after an overnight fast of 16 or 18 hours are given the test compound (100 mg/kg body weight) by intragastric administration 30 minutes before the intraperitoneal administration of glucose (1 g/kg body weight). Circulating glucose levels are determined immediately before glucose administration and 30, 60 and 90 minutes after glucose administration. Active compounds increase circulating glucose levels compared to controls. Since glucose levels peak at 30 minutes following glucose administration, the difference in circulating glucose levels between controls and treated rats at 30 minutes is used as an index of activity. The data are expressed as percent of control.

[3] = Antiobesity effects in obese Zucker rats; assay type: in vivo, genetically obese male Zucker rats; conditions: 14 days; for Relative Body Weight Gain Index: gain / days / dose (g/kg)
Protocol: ANTIOBESITY EFFECTS IN OBESE ZUCKER RATS
Genetically Obese Male Zucker rats were kept in temperature (22° C.) and light (12 hours light-dark cycle) regulated rooms. One week prior to the start of the experiment, the rats were transferred to individual wirebottomed cages and trained to eat a powdered chow diet (Ralston Purina Co., St. Louis, Mo.) ad libitum.
At the beginning of the experiment, the control group contributed to eat the chow diet and the experimental animals were given a chow diet containing drug. The amount of drug administered was calculated from the food intake per kg body weight for each experimental group. The age of the rats at the start of the drug treatment was two to three months. The period of treatment was 28 to 64 days. Food intake and body weights were recorded periodically (once each day to twice a week) throughout the duration of the study. Plasma samples for insulin and glucose determinations were taken from clipped tails. Carcass composition was determined at the end of the treatment period and, or comparative purposes, prior to the start of treatment.

[4] = Antiobesity effects in obese Zucker rats; assay type: in vivo, genetically obese male Zucker rats; conditions: 46 mg/kg, 14 days; gain / days / dose (g/kg)

| SMILES | Perfused Pancreas Inhibition Index ([1]; 100 μM) | response vs control in vivo at 100 mg/kg [2] [%] | Perfused Pancreas Inhibition Index ([1]; 50 μM) | other results |
| --- | --- | --- | --- | --- |
| O=C(CCCc1cccnc1)N1CCC(C(c2ccccc2)c2ccccc2)CC1 [Example 10, 4-diphenylmethyl-1-[1-oxo-4-(3-pyridinyl)butyl]piperidine, 0.1 molar ethylacetate solvate] | 6.0 | 105 | – | – |
| O=C(CCCc1cccnc1)N1CCC(C=C(c2ccccc2)c2ccccc2)CC1 [Example 11, 4-(2,2-diphenylethenyl)-1-[1-oxo-4-(3-pyridinyl)butyl]piperidine] | – | 99 | 7.6 | – |
| O=C(CCCc1cccnc1)N1CCC(CC(c2ccccc2)c2ccccc2)CC1 [Example 14, 4-(2,2-diphenylethyl)-1-[1-oxo-4-(3-pyridinyl)butyl]piperidine] | 14.1 | 109 | – | – |
| c1ccc(C(c2ccccc2)C2CCN(CCCCc3cccnc3)CC2)cc1 [Example 16, 3-[4-[4-(Diphenylmethyl)-1-piperidinyl]butyl]pyridine (1:1)-(Z)-2-butenedioate salt] | 5.3 | 120 | – | – |
| C(=C(c1ccccc1)c1ccccc1)C1CCN(CCCCc2cccnc2)CC1 [Example 17, 3-[4-[4-(2,2-Diphenylethenyl)-1-piperidinyl]butyl]pyridine] | 1.7 | 101 | – | – |
| Fc1ccc(C(=CC2CCN(CCCCc3cccnc3)CC2)c2ccc(F)cc2)cc1 [Example 18, 3-[4-[4-[2,2-bis(4-fluorophenyl)ethenyl]-1-piperidinyl]butyl]pyridine (1:1)-(E)-2-butenedioate salt] | 0.6 | 113 | – | – |
| C(=C(c1ccccc1)c1ccccc1)C1CCN(CCCCCc2cccnc2)CC1 [Example 19, 3-[5-[4-(2,2-Diphenylethenyl)-1-piperidinyl]pentyl]pyridine (1:1)-(E)-2-butenedioate salt] | 24.1 | 97 | – | – |
| c1ccc(C(CC2CCN(CCCCc3cccnc3)CC2)c2ccccc2)cc1 [Example 20, 3-[4-[4-(2,2-Diphenylethyl)-1-piperidinyl]butyl]pyridine] | 19.1 | 106 | – | – |
| Fc1ccc(C(CC2CCN(CCCCc3cccnc3)CC2)c2ccc(F)cc2)cc1 [Example 21, 3-[4-[4-[2,2-Bis(4-fluorophenyl)ethyl]-1-piperidinyl]butyl]pyridine (1:1)-(E)-2-butenedioate salt] | 16.3 | 136 | – | – |
| C(=C(c1ccccc1)c1ccccc1)C1CCN(CCCc2cccnc2)CC1 [Example 22, 3-[3-[4-(2,2-Diphenylethenyl)-1-piperidinyl]propyl]pyridine (1:1)-(E)-2-butenedioate salt] | 10.1 | 101 | – | – |
| C(=C(c1ccccc1)c1ccccc1)C1CCN(CCCCCCc2cccnc2)CC1 [Example 23, 3-[6-[4-(2,2-diphenylethenyl)-1-piperidinyl]hexyl]pyridine (1:1)-(E)-2-butenedioate salt] | 2.6 | 144 | – | – |
| C(=C(c1ccccc1)c1ccccc1)C1CCN(CCCCCCCc2cccnc2)CC1 [Example 24, 3-[7-[4-(2,2-Diphenylethenyl)-1-piperidinyl]heptyl]pyridine (1:1)-(E)-2-butenedioate salt hemihydrate] | – | 118 | 35 | – |
| Fc1ccc(C(CC2CCN(CCCCCCc3cccnc3)CC2)c2ccc(F)cc2)cc1 [Example 26, 3-[6-[4-[2,2-Bis(4-fluorophenyl)ethyl]-1-piperidinyl]hexyl]pyridine (1:1)-(E)-2-butenedioate salt] | – | 125 | 2.0 | – |
| c1ccc(C(CC2CCN(CCCCCCCCc3cccnc3)CC2)c2ccccc2)cc1 [Example 27, 3-[8-[4-(2,2-Diphenylethyl)-1-piperidinyl]octyl]pyridine] | – | – | – | Relative Body Weight Gain Index ([3]; 58 mg/kg): 94; Body Weight Gain (treated minus control) ([3]; 58 mg/kg, marked *): -76 g; Food Intake ([3]; 58 mg/kg, marked *): 70 % of control |
| C(=C(c1ccccc1)c1ccccc1)C1CCN(CCCCc2cncnc2)CC1 [Example 28, 5-[4-[4-(2,2-diphenylethenyl)-1-piperidinyl]butyl]pyrimidine (1:1)-(E)-2-butenedioate salt] | 3.0 | 147 | – | – |
| C(=C(c1ccccc1)c1ccccc1)C1CCN(CCCCCCc2cncnc2)CC1 [Example 29, 5-[6-[4-(2,2-Diphenylethenyl)-1-piperidinyl]hexyl]pyrimidine] | 10.4 | 104 | – | – |
| C(=C(c1ccccc1)c1ccccc1)C1CCN(CCCCCCCCCc2cccnc2)CC1 [Example 31, 3-[9-[4-(2,2-Diphenylethenyl)-1-piperidinyl]nonyl]pyridine] | – | 107 | 2.7 | Relative Body Weight Gain Index ([3]; 41 mg/kg): 61; Body Weight Gain (treated minus control) ([3]; 41 mg/kg, marked *): -35 g; Food Intake ([3]; 41 mg/kg, marked *): 82 % of control |
| C(=C(c1ccccc1)c1ccccc1)C1CCN(CCCCCCCCCCc2cccnc2)CC1 [Example 32, 3-[10-[4-(2,2-Diphenylethenyl)-1-piperidinyl]decyl]pyridine] | – | 100 | – | Food Intake ([3]; 46 mg/kg): 91 % of control; Body Weight Gain (treated minus control) ([3]; 46 mg/kg, marked *): -46 g; Relative Body Weight Gain Index [4]: 71 |
| O=C(CCCCCn1ccnc1)N1CCC(C=C(c2ccccc2)c2ccccc2)CC1 [Example 33, 4-(2,2-Diphenylethenyl)-1-[1-oxo-6-(1H-imidazo-1-yl)hexyl]piperidine] | – | 120 | 2.5 | – |
| C(=C(c1ccccc1)c1ccccc1)C1CCN(CCCCCCn2ccnc2)CC1 [Example 34, 1-[6-[4-(2,2-Diphenylethenyl)-1-piperidinyl]hexyl]-1H-imidazole] | – | 101 | 1.1 | – |

— US4632925A, “N-substituted diphenylpiperidines and antiobesity use thereof” (Hoffmann-La Roche Inc., priority 1985, dated 1986)
